Assay [1] addresses MMP-12 (Homo sapiens, UniProt P39900). Description: Fluorescence-based MMP inhibition assay, MMP-12. The format is biochemical. Conditions: MMP-12, fluorescence based assay, average of two experiments.
Assay [2] addresses MMP-9 (Homo sapiens, UniProt P14780). Description: Fluorescence-based MMP inhibition assay, MMP-9. Conditions: inhibitor, MMP-9, fluorescence based assay, average of two experiments. The format is biochemical.

The structures appear in SMILES notation.

Chain of MMP-9 (P14780 94-707, species assumed): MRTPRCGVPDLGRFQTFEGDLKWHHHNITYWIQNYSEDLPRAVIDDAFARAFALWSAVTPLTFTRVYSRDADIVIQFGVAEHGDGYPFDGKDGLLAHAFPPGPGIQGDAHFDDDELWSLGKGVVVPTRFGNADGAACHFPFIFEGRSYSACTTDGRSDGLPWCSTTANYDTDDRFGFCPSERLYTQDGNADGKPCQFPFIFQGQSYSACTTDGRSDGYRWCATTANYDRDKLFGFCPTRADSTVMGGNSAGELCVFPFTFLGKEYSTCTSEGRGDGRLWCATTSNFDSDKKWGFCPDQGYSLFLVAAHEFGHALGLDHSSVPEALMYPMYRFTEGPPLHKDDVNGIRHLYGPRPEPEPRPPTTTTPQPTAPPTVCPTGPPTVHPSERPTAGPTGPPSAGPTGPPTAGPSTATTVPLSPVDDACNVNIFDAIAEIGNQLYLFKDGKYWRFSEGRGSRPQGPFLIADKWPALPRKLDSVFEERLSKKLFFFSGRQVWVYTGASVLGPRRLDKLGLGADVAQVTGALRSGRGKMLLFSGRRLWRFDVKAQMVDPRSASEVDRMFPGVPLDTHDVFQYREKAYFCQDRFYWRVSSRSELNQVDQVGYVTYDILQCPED
Chain of MMP-12 (P39900 106-470, species assumed): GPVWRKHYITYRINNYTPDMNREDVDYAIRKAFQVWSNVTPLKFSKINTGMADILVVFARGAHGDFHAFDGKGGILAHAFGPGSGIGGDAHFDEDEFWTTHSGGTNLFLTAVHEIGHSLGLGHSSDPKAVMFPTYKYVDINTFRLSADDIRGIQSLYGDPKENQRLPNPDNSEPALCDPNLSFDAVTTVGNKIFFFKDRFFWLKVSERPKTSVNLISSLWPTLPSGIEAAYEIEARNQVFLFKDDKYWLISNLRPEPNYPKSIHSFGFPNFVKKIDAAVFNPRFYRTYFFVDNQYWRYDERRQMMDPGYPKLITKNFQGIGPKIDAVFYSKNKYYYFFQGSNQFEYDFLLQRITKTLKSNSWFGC

Regarding `O=C(NCc1ccc(-c2ccccc2)cc1)c1cccc(=O)n1O` [1,2-HOPO-2], the concentration for half-maximal inhibition (IC50) (in general, the concentration that inhibits the measured activity by half) is 53 nM in assay [1] and 6.1 µM in assay [2].

(Values after publication PMC2953536 (Angewandte Chemie (International ed. in English), 2010).)
